Results: PMC4045409 (Biochemical and biophysical research communications, 2011)
pEC50, pKi: −log10 of the molar value.

Experiments:
α1D-AR + β2-syntrophin [1] = target: T1, α1D-AR + β2-syntrophin (Homo sapiens, UniProt P25100); assay: [3H]-PI hydrolysis, HEK293 cells, agonist; type: cell-based
T1 sequence (P25100 1-572): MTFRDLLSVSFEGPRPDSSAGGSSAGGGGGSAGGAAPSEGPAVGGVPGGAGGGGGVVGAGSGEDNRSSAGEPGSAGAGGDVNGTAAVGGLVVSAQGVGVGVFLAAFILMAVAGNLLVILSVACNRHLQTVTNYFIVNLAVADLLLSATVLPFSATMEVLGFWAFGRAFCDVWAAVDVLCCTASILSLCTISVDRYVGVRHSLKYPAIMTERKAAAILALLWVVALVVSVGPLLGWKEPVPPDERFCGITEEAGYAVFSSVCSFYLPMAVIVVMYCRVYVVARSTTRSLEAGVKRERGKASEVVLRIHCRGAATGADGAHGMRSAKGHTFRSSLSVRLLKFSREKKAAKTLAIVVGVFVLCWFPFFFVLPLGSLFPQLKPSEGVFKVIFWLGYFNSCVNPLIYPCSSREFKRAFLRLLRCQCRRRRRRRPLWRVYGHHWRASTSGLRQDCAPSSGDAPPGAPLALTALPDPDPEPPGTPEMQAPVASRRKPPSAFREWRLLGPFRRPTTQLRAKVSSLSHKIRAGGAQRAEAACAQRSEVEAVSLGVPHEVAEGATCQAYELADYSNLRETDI
T1 sequence (Q61235 1-520 partner): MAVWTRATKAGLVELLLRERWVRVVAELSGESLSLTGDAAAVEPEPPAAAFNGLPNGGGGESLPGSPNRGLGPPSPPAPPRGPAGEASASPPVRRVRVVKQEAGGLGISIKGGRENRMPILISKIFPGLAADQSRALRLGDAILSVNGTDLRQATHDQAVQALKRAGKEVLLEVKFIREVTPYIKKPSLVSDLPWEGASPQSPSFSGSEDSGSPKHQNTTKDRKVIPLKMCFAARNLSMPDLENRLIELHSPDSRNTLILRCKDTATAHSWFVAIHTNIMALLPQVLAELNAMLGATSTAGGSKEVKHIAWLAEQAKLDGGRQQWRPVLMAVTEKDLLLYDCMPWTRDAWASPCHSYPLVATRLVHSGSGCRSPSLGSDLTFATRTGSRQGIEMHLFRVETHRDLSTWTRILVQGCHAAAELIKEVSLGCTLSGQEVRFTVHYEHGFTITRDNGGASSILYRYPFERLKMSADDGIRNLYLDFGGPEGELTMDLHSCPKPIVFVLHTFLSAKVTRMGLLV

α1D-AR + β1-syntrophin [2] = target: T2, α1D-AR + β1-syntrophin (Homo sapiens, UniProt P25100); assay: [3H]-PI hydrolysis, HEK293 cells, agonist; type: cell-based
T2 sequence (P25100 1-572): T1 sequence (P25100 1-572)
T2 sequence (Q99L88 2-537 partner): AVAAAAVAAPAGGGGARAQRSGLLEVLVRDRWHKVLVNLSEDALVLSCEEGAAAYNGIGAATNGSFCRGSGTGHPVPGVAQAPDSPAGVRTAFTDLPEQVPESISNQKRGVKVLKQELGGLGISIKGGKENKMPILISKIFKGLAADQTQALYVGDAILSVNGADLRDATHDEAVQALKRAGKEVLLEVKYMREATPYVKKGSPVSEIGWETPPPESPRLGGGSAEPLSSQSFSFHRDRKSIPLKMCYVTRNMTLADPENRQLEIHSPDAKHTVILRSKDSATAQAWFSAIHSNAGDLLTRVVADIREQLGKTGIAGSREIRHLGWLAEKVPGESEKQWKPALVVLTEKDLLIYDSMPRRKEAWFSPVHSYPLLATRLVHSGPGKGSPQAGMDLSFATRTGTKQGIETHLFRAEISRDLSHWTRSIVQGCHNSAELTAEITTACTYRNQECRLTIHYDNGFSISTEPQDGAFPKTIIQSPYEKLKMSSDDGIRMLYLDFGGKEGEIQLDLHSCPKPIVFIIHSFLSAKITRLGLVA

α1D-AR + α-syntrophin [3] = target: T3, α1D-AR + α-syntrophin (Homo sapiens, UniProt P25100); assay: [3H]-PI hydrolysis, HEK293 cells, agonist; type: cell-based
T3 sequence (P25100 1-572): T1 sequence (P25100 1-572)
T3 sequence (Q61234 1-503 partner): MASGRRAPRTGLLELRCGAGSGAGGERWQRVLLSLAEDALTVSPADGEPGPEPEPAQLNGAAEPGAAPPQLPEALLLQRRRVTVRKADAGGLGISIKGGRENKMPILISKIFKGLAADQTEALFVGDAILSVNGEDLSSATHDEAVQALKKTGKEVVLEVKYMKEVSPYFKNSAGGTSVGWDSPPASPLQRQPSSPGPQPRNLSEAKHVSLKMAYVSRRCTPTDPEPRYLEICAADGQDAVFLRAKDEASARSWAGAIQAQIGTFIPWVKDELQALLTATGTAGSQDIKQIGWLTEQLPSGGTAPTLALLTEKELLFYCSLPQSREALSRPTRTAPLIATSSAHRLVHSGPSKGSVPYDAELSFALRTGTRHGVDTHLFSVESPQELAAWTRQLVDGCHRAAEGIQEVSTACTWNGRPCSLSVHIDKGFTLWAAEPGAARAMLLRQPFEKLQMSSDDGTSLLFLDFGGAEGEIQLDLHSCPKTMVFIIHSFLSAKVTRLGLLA

α1D-AR + β1-syntrophin [4] = target: T2, α1D-AR + β1-syntrophin; assay: [3H]-prazosin competition, HEK293 membranes; type: binding
α1D-AR + α-syntrophin [5] = target: T3, α1D-AR + α-syntrophin; assay: [3H]-prazosin competition, HEK293 membranes; type: binding
α1D-AR + β2-syntrophin [6] = target: T1, α1D-AR + β2-syntrophin; assay: [3H]-prazosin competition, HEK293 membranes; type: binding
[7] = 1 nM [3H]-prazosin, 30 min, 37 °C, value is -log10 of KI in M, single site

Compound | pEC50 (α1D-AR + β2-syntrophin [1]) | pEC50 (α1D-AR + β1-syntrophin [2]) | pEC50 (α1D-AR + α-syntrophin [3]) | other results
CNCC(O)c1ccc(O)c(O)c1 (racemic) [(+/−) Epinephrine] | 7.45 | 7.86 | 7.80 | 
COc1ccccc1N1CCN(CCCNc2c(C)c(=O)n(C)c(=O)n2C)CC1 [5-MU] |  |  |  | pKi (α1D-AR + β1-syntrophin [4]): 7.63; pKi (α1D-AR + α-syntrophin [5]): 7.56; pKi (α1D-AR + β2-syntrophin [6]): 7.44
CNC[C@H](O)c1cccc(O)c1 [(−) Phenylephrine] | 6.90 | 6.81 | 7.17 | 
CCS(=O)(=O)Nc1cccc(C(=C2CCCCC2)c2cnc[nH]2)c1 [A-315456] |  |  |  | +β1-syntrophin (α1D-AR + β1-syntrophin [4]; [7]): 7.27 ± 0.08 M; +α-syntrophin (α1D-AR + α-syntrophin [5]; [7]): 7.25 ± 0.13 M; +β2-syntrophin (α1D-AR + β2-syntrophin [6]; [7]): 7.42 ± 0.21 M
